Reference: paper PMC5539244, “2-Oxoesters: A Novel Class of Potent and Selective Inhibitors of Cytosolic Group IVA Phospholipase A2” (Scientific Reports, 2017)
Several values for one entry are separate records, joined by “and”; a condition that tells them apart may be missing. Equal values may be shown once. Read-outs that look alike come from different tables or passages of the source.

Columns and labels:
[1] = biological target: T1, recombinant human GIVA cPLA2 (Homo sapiens, UniProt P47712); experiment: mixed micelle assay, GIVA cPLA2 inhibition; type: biochemical; conditions: for GIVA cPLA2 X I(50): mole fraction of inhibitor in total substrate interface giving 50% inhibition; for inhibition at 0.091 mole fraction: read-out: GIVA cPLA2 % Inhibition
T1 sequence (P47712 1-749): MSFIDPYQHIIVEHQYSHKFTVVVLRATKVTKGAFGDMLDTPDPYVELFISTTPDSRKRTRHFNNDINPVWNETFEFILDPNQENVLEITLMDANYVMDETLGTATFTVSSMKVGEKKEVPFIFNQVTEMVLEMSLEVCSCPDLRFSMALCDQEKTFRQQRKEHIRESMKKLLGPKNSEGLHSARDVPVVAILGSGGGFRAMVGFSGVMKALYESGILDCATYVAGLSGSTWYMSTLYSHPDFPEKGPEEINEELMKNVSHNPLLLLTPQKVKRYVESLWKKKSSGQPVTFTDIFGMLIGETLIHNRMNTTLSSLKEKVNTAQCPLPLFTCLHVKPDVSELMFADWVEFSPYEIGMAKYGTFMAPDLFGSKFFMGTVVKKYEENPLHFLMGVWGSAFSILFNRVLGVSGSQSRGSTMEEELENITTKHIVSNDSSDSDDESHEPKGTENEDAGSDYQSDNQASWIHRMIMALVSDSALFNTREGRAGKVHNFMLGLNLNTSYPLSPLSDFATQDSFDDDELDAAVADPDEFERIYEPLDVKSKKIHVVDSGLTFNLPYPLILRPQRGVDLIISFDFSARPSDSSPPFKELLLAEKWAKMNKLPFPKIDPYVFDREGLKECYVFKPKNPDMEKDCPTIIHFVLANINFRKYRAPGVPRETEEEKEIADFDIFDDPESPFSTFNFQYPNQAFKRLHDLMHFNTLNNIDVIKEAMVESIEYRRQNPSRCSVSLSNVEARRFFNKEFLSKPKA

human GVIA iPLA2 = biological target: T2, human GVIA iPLA2 (Homo sapiens, UniProt O60733); experiment: mixed micelle assay, GVIA iPLA2 inhibition; type: biochemical; conditions: for inhibition at 0.091 mole fraction: read-out: GVIA iPLA2 % Inhibition
T2 sequence (O60733 1-806): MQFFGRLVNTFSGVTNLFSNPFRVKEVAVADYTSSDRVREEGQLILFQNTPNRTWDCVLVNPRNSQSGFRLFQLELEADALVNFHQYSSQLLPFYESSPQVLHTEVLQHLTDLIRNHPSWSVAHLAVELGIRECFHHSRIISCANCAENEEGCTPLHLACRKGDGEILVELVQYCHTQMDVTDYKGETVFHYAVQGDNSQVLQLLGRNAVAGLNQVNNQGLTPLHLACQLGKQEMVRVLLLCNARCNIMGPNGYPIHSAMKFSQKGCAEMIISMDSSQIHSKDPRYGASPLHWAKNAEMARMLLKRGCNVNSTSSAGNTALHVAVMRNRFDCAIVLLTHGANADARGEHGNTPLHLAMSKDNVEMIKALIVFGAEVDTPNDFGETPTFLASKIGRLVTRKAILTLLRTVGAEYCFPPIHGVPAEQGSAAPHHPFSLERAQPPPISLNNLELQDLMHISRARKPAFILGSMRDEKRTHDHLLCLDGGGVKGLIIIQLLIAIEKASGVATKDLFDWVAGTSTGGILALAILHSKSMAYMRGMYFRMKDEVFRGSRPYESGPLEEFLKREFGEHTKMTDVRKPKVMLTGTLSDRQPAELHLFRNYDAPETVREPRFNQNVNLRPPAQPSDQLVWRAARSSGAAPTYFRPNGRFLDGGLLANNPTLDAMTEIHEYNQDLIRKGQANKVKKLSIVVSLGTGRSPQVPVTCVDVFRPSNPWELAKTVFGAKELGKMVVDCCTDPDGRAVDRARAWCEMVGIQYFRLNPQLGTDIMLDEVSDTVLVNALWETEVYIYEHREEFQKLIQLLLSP

human GV sPLA2 = biological target: T3, human GV sPLA2 (Homo sapiens, UniProt P39877); experiment: mixed micelle assay, GV sPLA2 inhibition; type: biochemical; conditions: read-out: GV sPLA2 % Inhibition
T3 sequence (P39877 21-138): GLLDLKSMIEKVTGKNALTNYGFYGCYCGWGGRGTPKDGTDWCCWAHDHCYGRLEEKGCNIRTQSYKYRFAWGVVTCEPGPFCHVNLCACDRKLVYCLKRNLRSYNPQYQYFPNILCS

[2] = biological target: T1, recombinant human GIVA cPLA2; design: method as in PMID 12086476, PMID 15214789; conditions: mixed micelle assay; cited from earlier work
logP measured by HPLC = type: physicochemical
RAW264.7 macrophages [3] = experiment: KLA-elicited eicosanoid production in macrophages (LC-MS/MS); type: cell-based, murine; conditions: 5 μM inhibitor 1 h before KLA 100 ng/mL; supernatant at 24 h
Description: It is well established that the toll-like receptor 4 (TLR4)-specific agonist Kdo2-lipid A (KLA) leads to GIVA cPLA2 activation, [52] and release of arachidonic acid in macrophages that is then converted into eicosanoids by cyclooxygenase-2[53]–[55]. […] The high levels of PGD2 compared to background in culture supernatants following KLA stimulation makes it an ideal marker for GIVA cPLA2 activity in macrophages. […] RAW264.7 macrophages were pre-treated with vehicle control, DMSO or 17f (5 μM) for one hour prior to stimulation with KLA (100 ng/mL). Culture supernatants were collected after 24 hours for eicosanoid quantification by LC-MS/MS.
Figure 8 Inhibitor 17f inhibits KLA-elicited prostaglandin D2 biosynthesis by macrophages. […] Supernatants were collected 24 hr following stimulation for eicosanoid quantification.
RAW264.7 murine macrophage cells (ATCC #TIB-71) were maintained at 37 °C, 5% CO2 in DMEM (Life Technologies 11995–065) containing 10% FBS (Gemini), 100 U/mL penicillin/streptomycin, 1 mM sodium pyruvate and 4 mM L-glutamine. […] Supernatants were collected at 24 hours for eicosanoid quantification. […] Online UPLC-electrospray ionization MS/MS quantitation of eicosanoids was performed on a QTRAP 6500 hybrid quadrupole/linear ion-trap mass spectrometer (AB Sciex) via multiple reaction monitoring (MRM) in negative ion mode. […]

RAW264.7 macrophages [4] = experiment: cellular toxicity by trypan blue exclusion; type: cell-based, murine; conditions: any concentration tested, data not shown
[5] = at 0.091 mole fraction of inhibitor, mixed micelles

Structure (SMILES)	GIVA cPLA2 X I(50) [1]	inhibition at 0.091 mole fraction [1]	inhibition at 0.091 mole fraction (human GVIA iPLA2)	inhibition at 0.091 mole fraction (human GV sPLA2)	inhibition at 0.091 mole fraction [1, 5]	inhibition at 0.091 mole fraction (human GV sPLA2; [5])	other results
CCCCCCCCCCCCCCC(=O)C(=O)OCCCC(=O)O [17a, 4-((2-Oxohexadecanoyl)oxy)butanoic acid]	0.00008 ± 0.00001 mole fraction	> 95%	< 25%	< 25%			melting point: 76 to 78 °C
CCCCCCCCCCCCCCC(=O)C(=O)OCCCCC(=O)O [17e, 5-((2-Oxohexadecanoyl)oxy)pentanoic acid]	0.00007 ± 0.00001 mole fraction			< 25%	> 95%		inhibition at 0.091 mole fraction (human GVIA iPLA2; [5]): 25%
O=C(O)CCCOC(=O)C(=O)CCCCc1ccc(-c2ccccc2)cc1 [17d, 4-(6-(Biphenyl-4-yl)-2-oxohexanoyloxy)butanoic acid]	0.00068 mole fraction and 0.00068 ± 0.00007 mole fraction	> 95%	< 25%	< 25%			times less potent than 17a on GIVA cPLA2 ([1]; ratio of X I(50) values): eight; melting point: 101 to 103 °C
COC(=O)C(=O)CCCCc1ccc2ccccc2c1 [10b, Methyl 6-(naphthalen-2-yl)-2-oxohexanoate]					55 ± 4%	< 25%	inhibition at 0.091 mole fraction (human GVIA iPLA2; [5]): > 95%; GVIA iPLA2 X I(50) (human GVIA iPLA2; mole fraction of inhibitor in total substrate interface giving 50% inhibition): 0.0052 mole fraction and 0.0052 ± 0.0007 mole fraction
COC(=O)C(=O)CCCCc1ccccc1 [10a, Methyl 2-oxo-6-phenylhexanoate]					< 25%	< 25%	inhibition at 0.091 mole fraction (human GVIA iPLA2; [5]): 72 ± 4%
CCCCCCCCCCCCCCC(O)C(=O)OCCCC(=O)O (stereo not drawn) [compound 20, 4-((2-Hydroxyhexadecanoyl)oxy)butanoic acid]		< 25%	< 25%	41 ± 0.2%			
O=C(O)CCCCOC(=O)C(=O)CCCc1ccc(-c2ccccc2)cc1 [17h, 5-((5-([1,1′-Biphenyl]-4-yl)-2-oxopentanoyl)oxy)pentanoic acid]	0.0010 ± 0.0003 mole fraction			< 25%	> 95%		inhibition at 0.091 mole fraction (human GVIA iPLA2; [5]): 94 ± 1.4%
CCCCCCCCCCCCCCC(=O)C(=O)O [12e, 2-Oxohexadecanoic acid]			< 25%		78.4 ± 3.5%	< 25%	
O=C(O)CCCOC(=O)C(=O)CCCc1ccc(-c2ccccc2)cc1 [17g, 4-((5-([1,1′-Biphenyl]-4-yl)-2-oxopentanoyl)oxy)butanoic acid]	0.0065 ± 0.002 mole fraction	> 95%	84 ± 1.5%	< 25%			melting point: 58 to 60 °C
CCOC(=O)CCCOC(=O)C(=O)CCCCc1ccccc1 [compound 19, 4-Ethoxy-4-oxobutyl 2-oxo-6-phenylhexanoate]			< 25%		27.3 ± 4.8%	< 25%	
O=C1NC(=O)/C(=C/c2ccc(C(=O)NC[C@@H]3C[C@@H](SC(c4ccccc4)(c4ccccc4)c4ccccc4)CN3C(=O)c3ccccc3C(=O)c3ccc(F)cc3F)cc2)S1 [compound 1, pyrrophenone]							GIVA cPLA2 X I(50) [2]: 0.002 mole fraction
CC(C)(C)OC(=O)CCCOC(=O)C(=O)CCCCc1ccccc1 [16c, 4-(tert-Butoxy)-4-oxobutyl 2-oxo-6-phenylhexanoate]			< 25%		< 25%	< 25%	
O=C(O)CCCCOC(=O)C(=O)CCCCc1ccc(-c2ccccc2)cc1 [17f, 5-((6-([1,1′-Biphenyl]-4-yl)-2-oxohexanoyl)oxy)pentanoic acid]	0.000078 ± 0.00001 mole fraction	> 95%		< 25%			increase in potency compared to GK174 on GIVA cPLA2 ([1]; addition of the carboxylic moiety): 10 fold; chromatographic logP (logP measured by HPLC): 3.5; decrease in KLA-elicited PGD2 production (RAW264.7 macrophages [3]): over 50%; cellular toxicity (RAW264.7 macrophages [4]): did not show cellular toxicity
CCCCCCCCCCOc1ccc(OCC(=O)Cn2cc(C(=O)OC)c3cc(C(=O)O)ccc32)cc1 [compound 4, reference compound]	0.00008 mole fraction and 0.00008 ± 0.000005^c mole fraction	> 95%					
CCCCCCCCCCCCCCC(=O)C(=O)OC [10e, Methyl 2-oxohexadecanoate]			69.4 ± 12.2%		68.2 ± 2.7%	27.5 ± 0.9%	
CCCCCCOc1ccc(CCCCC(=O)C(=O)OCCCC(=O)O)cc1 [17b, 4-((6-(4-(Hexyloxy)phenyl)-2-oxohexanoyl)oxy)butanoic acid]	0.00289 ± 0.00043 mole fraction	> 95%	< 25%	52.6 ± 5.3%			
